Results as given in patent publication US20060210479A1 (Dow Global Technologies Inc., priority 2004, published 2006).

Legend:
[1] = tested on: LNCaP cell line; experiment: Chelate permeability: fluorescence of cytoplasm and membrane fractions; type: cell-based, human; conditions: 1 mM chelate, 2 h
[2] = tested on: cancer cells (LNCaP, Caco-2, T84); experiment: Chelate permeability and specificity, cancer cells versus normal cells (summary); type: cell-based, human; conditions: for permeability to cell membranes: cancer cells
[3] = tested on: HEK293 cells, normal (non-induced); experiment: Permeability of chelates to HEK293 cells, fluorescence of fractions; type: cell-based, human; conditions: for Fluorescence/mg Cytoplasm / Fluorescence/mg Membrane: HEK293 Normal, 1 mM chelate, 2 hours; for differential fluorescence, cytoplasm versus membrane fractions: normal HEK293 cells
Experimental: (§1) The human kidney transformed HEK293 cells (obtained from the ATCC) were grown in Eagle's Minimum Essential Medium (EMEM) supplemented with 10% (v/v) heat-inactivated fetal bovine serum, sodium pyruvate, nonessential amino acids and antibiotics in a humidified 5% CO2 atmosphere at 37° C. Medium and supplements were purchased from Gibco bRL (Grand Island, N.Y.). Etoposide was obtained from Sigma (St. Louis, Mo.) and prepared as 20 mM solution in dimethyl sulfoxide (DMSO). For treatments, etoposide was applied to the HEK293 cultures at 1:1000 dilution (final concentration of 20 μM) after cell became 75% confluent. As a control, cells were fed with medium containing 0.1% DMSO in the absence of etoposide. After treatment with etoposide, cells were incubated in a humidified 5% CO2 at 37° C. for 24 hours. HEK293 cells were collected by removing treatment medium and washed 2 times with 10 mM HEPES buffer. Final cell pellets were resuspended in a small amount of HEPES and stored at 4° C. for further study.
(§2) Cells were grown to confluence in T-150 flasks (about 2×10^6 cells). […] After treatment, the chelate or analogue supernatant was discarded and the cells were rinsed three times at room temperature with 10 mM HEPES. Cells were then removed from the flask by manual scraping. Cells were transferred to a 50-mL conical tube and centrifuged (400×g) for 5 minutes and the test material removed. Remaining cells were rinsed twice with cold 10 mM HEPES. Cells were used in cell binding assays.

[4] = tested on: Caco-2 cell line; experiment: Chelate permeability: fluorescence of cytoplasm and membrane fractions; type: cell-based, human; conditions: 1 mM chelate, 2 h
[5] = tested on: T84 cell line; experiment: as above; type: cell-based, human; conditions: 1 mM chelate, 2 h
[6] = tested on: RBL-2H3 cell line; experiment: as above; type: cell-based, rat; conditions: 1 mM chelate, 2 h, Table 4
Experimental: Tb-PCTMB (Tb(III) 3,6,9-tris(methylene phosphonic acid n-butyl ester)-3,6,9,15-tetraazabicyclo[9.3.1]pentadeca-1(15),11,13-triene) was tested for permeability to abnormal and disease-state cells.
RBL-2H3 is a rat basophilic leukemia cell line. These cells were grown in Iscove's Medium supplemented with 2 mM L-glutamnine, penicillin/streptomycin (100 IU/mL, 100 μg/mL) and 10% FBS. Cells were maintained at 5% CO2 and 95% humidity. PZ-HPV-7 cell line was derived from epithelial cells cultured from normal prostate tissue. They were grown in Keratinocyte-Serum Free Medium with human recombinant EGF and bovine pituitary extract supplemented with 50 μg/mL gentamicin and penicillin/streptomycin (100 IU/mL, 100 μg/mL). All media and supplements were purchased from Gibco BRL (Grand Island, N.Y., USA). All cell lines were obtained from ATCC and were maintained at 37° C., 5% CO2 and 95% humidity.
Cells were grown to confluence in T-150 flasks (about 2×10^6 cells). […] Cells were then removed from the flask by manual scraping. Cells were transferred to a 50-mL conical tube and centrifuged (400×g) for 5 minutes and the test material removed.
Cells were grown as described herein (Example 1). Cells were grown to confluence in T-150 flask (about 2×10^6 cells). […] Cells were then removed from the flask by manual scraping. Cells were transferred to a 50-mL conical tube and centrifuged (400×g) for 5 minutes and the test material removed.
Furthermore, one analogue, QCTMP (FIG. 26), having lesser lipophilic character (a free phosphonic acid moiety) was evaluated. […] In this study, the cytoplasm and membrane fractions were extracted by Mem-PER Eukaryotic Membrane Protein Extraction Reagent Kit as described by the manufacturers (Pierce Biotechnology, Rockford, Ill.) and analyzed by a Fluor-S Multilmager.

[7] = tested on: etoposide-induced (apoptotic) HEK293 cells; experiment: Permeability of chelates to apoptotic cells, fluorescence of fractions; type: cell-based, human; conditions: for Fluorescence/mg Cytoplasm / Fluorescence/mg Membrane: HEK293 Apoptotic (etoposide 20 μM, 24 hours), 1 mM chelate, 2 hours; for differential fluorescence, cytoplasm versus membrane fractions: etoposide-induced HEK293 cells
Experimental: as §1, §2

[8] = tested on: PZ-HPV-7 normal cell line; experiment: Chelate permeability: fluorescence of cytoplasm and membrane fractions; type: cell-based; conditions: PZ-HVP-7; 1 mM chelate, 2 h; Table 4

Row | SMILES | specificity or selectivity for cancer cells versus normal cells [2] | permeability to cell membranes [2] | Fluorescence/mg Cytoplasm [3] | Fluorescence/mg Membrane [3] | differential fluorescence, cytoplasm versus membrane fractions [3] | Fluorescence/mg Cytoplasm [7] | Fluorescence/mg Membrane [7] | differential fluorescence, cytoplasm versus membrane fractions [7] | Fluorescence/mg Cytoplasm ([1]; Table 1) | Fluorescence/mg Membrane ([1]; Table 1) | Fluorescence/mg Cytoplasm ([4]; Table 1) | Fluorescence/mg Membrane ([4]; Table 1) | Fluorescence/mg Cytoplasm ([5]; Table 1) | Fluorescence/mg Membrane ([5]; Table 1) | also measured
1 | Cc1ccc2nc(CN3CCN(CP(=O)([O-])O)CCN(CP(=O)([O-])O)CCN(CP(=O)([O-])O)CC3)ccc2c1.[Eu+3] [Eu-QCTMP] | did not show any specificity or selectivity | did not appear to be permeable | 1732 | 1738 | did not show any significant differential fluorescence | 1450 | 1800 | did not show any significant differential fluorescence |  |  |  |  |  |  | Fluorescence/mg Cytoplasm ([1]; Table 4): 2287; Fluorescence/mg Membrane ([1]; Table 4): 2301; Fluorescence/mg Cytoplasm ([4]; Table 4): 2300; Fluorescence/mg Membrane ([4]; Table 4): 2314; Fluorescence/mg Cytoplasm ([5]; Table 4): 2230; Fluorescence/mg Membrane ([5]; Table 4): 2259; Fluorescence/mg Cytoplasm [6]: 2311; Fluorescence/mg Membrane [6]: 2311; Fluorescence/mg Cytoplasm [8]: 2276; Fluorescence/mg Membrane [8]: 2271
2 | O=C([O-])CN1CCN(CC(=O)[O-])Cc2cccc(n2)CN(CC(=O)[O-])CC1.[Tb+3] [Tb-PCTA] | did not show any specificity or selectivity | no permeability | 686 | 685 | did not show any significant differential fluorescence | 652 | 678 | did not show any significant differential fluorescence | 368.8 | 362.1 | 366.3 | 362.8 | 333.4 | 329.1 | 
3 | COP(=O)([O-])CN1CCN(CP(=O)([O-])OC)Cc2cccc(n2)CN(CP(=O)([O-])OC)CC1.[Tb+3] [Tb-PCTMM] | did not show any specificity or selectivity | no permeability | 682 | 679 | did not show any significant differential fluorescence | 656 | 962 | did not show any significant differential fluorescence | 344.5 | 379.5 | 357.7 | 388.9 | 328.3 | 358.7 | 
